This is an account of results in the METLIN SMRT retention time set (Domingo-Almenara et al. 2019).

A short description of this data set: gradient 5% acetonitrile 3 min, to 50% in 2 min, to 85% in 15 min, held 3 min, 100 µL/min. Particulars: column: Zorbax Extend-C18 2.1 x 50 mm; eluents: water / acetonitrile, 0.1% formic acid. The gist of the method: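 Using water and acetonitrile that each contained 0.1% formic acid, mixtures of ~100 pure standards were separated at 100 μL/min on a Zorbax Extend-C18 column (2.1 × 50 mm, 1.8 μm). The HPLC fed a quadrupole time-of-flight mass spectrometer working in positive and negative ionization mode, with dead and dwell volumes of 40 μL and 900 μL. Data were acquired over 3 months. Retention time was read from computationally picked adduct peaks after manual inspection of each.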
On to `O=C1CCC2(C(=O)NCCN3CCOCC3)CCCC=C2N1c1ccccc1` (stereo not drawn), for which the RP-LC retention time stood at 553 s. For `O=S(=O)(Cc1noc(-c2ccc(F)cc2F)n1)c1ccc(Cl)cc1` the value was 1160 s; for `O=S(=O)(c1ccc(Cl)cc1)c1ccc(N2CCN(c3ncccn3)CC2)nn1`, 884 s; for `Cc1cnc(C2CN(C(=O)c3cccn3C)C2)n1CC1CC1`, 608 s. For `CC(C)Cn1cc(CCNS(=O)(=O)c2ccc(C(C)C)cc2)c2cccnc21` the value was 1110 s; for `CCN1CCN(S(=O)(=O)c2cc(-c3nnc(-c4ccccc4)o3)ccc2OC)CC1`, 636 s.

For the molecule `O=C1COc2ccc(S(=O)(=O)N3CCC(C(=O)Nc4ccc(C(F)(F)F)cc4)CC3)cc2N1`, the RP-LC retention time was determined as 803 s. The result for `C=CCN(C(=O)C1CCCN(c2ncnc3c2nc2n3CCCCC2)C1)c1ccccc1` (stereo not drawn) reads 864 s. Take `O=C(Cc1cn(Cc2ccc(F)cc2)c2ccccc12)N1CCN(C(=O)c2ccco2)CC1`: the RP-LC retention time came out at 803 s.

As to `CCn1c(=O)sc2cc(S(=O)(=O)N3CCC(C(=O)Nc4ccc(F)c(F)c4)CC3)ccc21`, the RP-LC retention time was 955 s. `Cn1c(=O)sc2cc(S(=O)(=O)N3CCC(C(=O)NC4CCCCCCC4)CC3)ccc21` displayed an RP-LC retention time of 931 s.

`CCn1cc(-c2nc(-c3ccc(OC)c(OC)c3)no2)c(=O)c2cc(F)ccc21` registered an RP-LC retention time of 811 s.

Regarding `CC(C)CC(=O)Nc1cc2c(cc1S(=O)(=O)c1ccccc1)n(C)c(=O)n2C`, the RP-LC retention time stood at 786 s. For `Cc1nc(-c2cc(S(=O)(=O)Nc3cccc(Cl)c3F)c(C)s2)cs1` the value was 1030 s; for `Cc1ccc(S(=O)(=O)N2CCCC(Cn3c(C)nc4cccnc43)C2)cc1F` (stereo not drawn), 725 s; for `Cc1ccc(-c2csc(Nc3ccccc3C)n2)cc1`, 1240 s.

`Cc1nn(CC(=O)NCCCN2CCCCC2)c(=O)c2nc(-c3ccccc3)sc12`: the RP-LC retention time is 627 s. With `CN(C)S(=O)(=O)c1ccc(-c2nnc(C(=O)NCCCN3CCCC3=O)o2)cc1`, the RP-LC retention time worked out at 655 s. `Cc1cc(-c2nnc(-c3ccco3)o2)c(C)n1CC(=O)NCc1ccc(F)c(Cl)c1`: the RP-LC retention time was 882 s. The result for `O=C(NCCc1ccc(Cl)cc1)c1nnc(-c2ccc(S(=O)(=O)N3CCOCC3)cc2)o1` reads 925 s. `Cc1ccc(-c2ccc(-n3nc(C)c(S(=O)(=O)N4CCCC(C)C4)c3C)nn2)cc1` (stereo not drawn) came in with an RP-LC retention time of 1230 s. The result for `Cc1cccc(CNc2cc(-n3ccnc3)ncn2)c1` reads 656 s; that for `CCS(=O)(=O)N1CC(=O)N(c2cc(C)ccc2C)C(C)(C(=O)NCc2ccc(F)cc2)C1` (stereo not drawn), 861 s. The result for `CCCn1cnnc1C1CCCCN1S(=O)(=O)c1cccnc1` (stereo not drawn) reads 580 s. `O=C(NCCN1CCCCC1)c1csc(-c2ccnc(N3CCOCC3)c2)n1` gave an RP-LC retention time of 566 s.

The molecule `O=C1COc2cc(S(=O)(=O)N3CCCC3C(=O)NCc3ccccc3)c(Cl)cc2N1` (stereo not drawn) yielded an RP-LC retention time of 718 s. For `O=C(NCc1ccc2c(c1)OCO2)c1csc(NS(=O)(=O)c2cccs2)n1`, the RP-LC retention time worked out at 721 s. Turning to `Cc1sc(C)c(S(=O)(=O)NCc2ccco2)c1-c1cc(C(F)(F)F)on1`, the RP-LC retention time was 1060 s. The result for `Cc1cccc(N2CCN(C(=O)C3=CCN(Cc4cccc(F)c4)CC3)CC2)c1` reads 690 s; that for `Oc1ccc2c3c1O[C@H]1c4oc5ccccc5c4C[C@@]4(O)[C@@H](C2)N(CC2CC2)CC[C@]314`, 673 s. For `Cc1ccccc1OCC(=O)Nc1ccc2c(c1)N(S(=O)(=O)c1ccccc1)CCC2` the value was 1030 s; for `COc1ccccc1N1CCN(CC2CN3C(=O)N(C)c4ccccc4C3=N2)CC1` (stereo not drawn), 662 s. As to `CC(C)C(=O)N1CCc2cc(C(=O)NC3CC3)ccc21`, the RP-LC retention time was found to be 698 s. The result for `COCCN1C(=O)[C@H]2CN(C(=O)Nc3ccccc3)C[C@H]2C1=O` reads 732 s; that for `Cc1ccc(CCNC(=O)C2CCCN(c3nnc(C)c4c(C)n(-c5ccccc5)nc34)C2)cc1` (stereo not drawn), 762 s. Molecule `CCC(C)NC(=O)N1CCn2nnc(CCC(=O)N3CCOCC3)c2C1` (stereo not drawn) registered an RP-LC retention time of 598 s. The result for `Cc1ccc(C2=NC3(CCN(C(=O)c4ccc5[nH]ccc5c4)CC3)ON2)cc1` reads 790 s. The result for `O=C(Nc1ccccc1)C1CCCN(S(=O)(=O)c2cc(-c3noc(C4CCC4)n3)cs2)C1` (stereo not drawn) reads 1140 s. In turn, `Cn1c(=O)c2c(nc(/C=C/c3cccc(Cl)c3)n2C)n(C)c1=O` yielded an RP-LC retention time of 1040 s. For `Cc1ccc(NC(=O)NCCc2cn(CC(C)C)c3ncccc23)c(Cl)c1` the value was 937 s; for `COc1cccc(-c2noc(Cn3c(=O)n(-c4cccc(OC)c4)c(=O)c4sccc43)n2)c1`, 970 s; for `COCCCNc1nc(-c2ccc(OC)cc2)nc2ccccc12`, 690 s. In turn, `Cc1sc(NC(=O)C2CCCCC2)nc1-c1ccc2c(c1)N(C)C(=O)CO2` had an RP-LC retention time of 1040 s. Consider `Cc1ccc(-c2cn3cccc(C)c3n2)cc1NS(=O)(=O)c1ccccc1`, for which the RP-LC retention time was found to be 672 s. The molecule `O=C(c1ccc2cc[nH]c2c1)N1CCN(c2cc(-c3cccs3)[nH]n2)CC1` yielded an RP-LC retention time of 747 s.

`Cn1c(C(=O)NCc2ccccn2)cc2c(=O)oc3ccccc3c21` came in with an RP-LC retention time of 607 s.

`Cc1ccc(N2CCC(NC(=O)Nc3cccc(Cl)c3C)C2=O)cc1` (stereo not drawn): the RP-LC retention time worked out at 909 s. For `Cc1csc(-c2cc(S(=O)(=O)N3CCN(c4ncccn4)CC3)c(C)n2C)n1` the value was 958 s. On to `CN(C)C(=O)c1ccc2c(c1)N(CC(=O)N1CCN(C(=O)c3ccco3)CC1)C(=O)C1CCCCN21` (stereo not drawn), for which the RP-LC retention time came to 667 s. On to `CCCCOc1ccc2c(=O)c3ccc(O)cc3oc2c1`, for which the RP-LC retention time amounted to 928 s. For `COc1cccc(-c2nc(-c3ccc4c(c3)oc(=O)n4C)no2)c1OC` the value was 959 s; for `Cc1cc(-c2nnc(-c3ccco3)o2)c(C)n1CC(=O)NCc1ccccc1`, 826 s. The result for `O=C(Nc1ccccc1)N1CCN(Cc2nc3cc(Cl)ccc3o2)CC1` reads 716 s; that for `COc1ccc(-c2csc3c(=O)n(Cc4cccc(OC)c4)cnc23)cc1`, 1030 s; that for `Cc1ccc(-c2noc(CN3N=NC4C(=O)N(c5ccc(F)cc5)C(=O)C43)n2)cc1` (stereo not drawn), 1020 s. The result for `CCCN1CCCCc2cc(C(=O)N(CC)C(C)C)sc21` reads 1240 s. Consider `CC1(CNS(=O)(=O)c2ccc(F)c(Cl)c2)CCOCC1`, for which the RP-LC retention time was determined as 861 s. Take `COc1ccc(/C=C/c2nn3c(CCc4ccccc4)nnc3s2)cc1`: the RP-LC retention time turned out to be 910 s. The result for `CCn1cnc(S(=O)(=O)N2CCCC(C(=O)Nc3ccc(F)c(Cl)c3)C2)c1` (stereo not drawn) reads 830 s; that for `O=C(NCCCN1CCOCC1)c1ccc(CS(=O)Cc2cccc(Cl)c2)o1` (stereo not drawn), 610 s; that for `Cc1ccccc1-c1ccc(N2CCN(C(=O)NC3CCCCC3)CC2)nn1`, 631 s.

Regarding `COc1ccc(C2(CNC(=O)CCc3c(C)noc3C)CCOCC2)cc1`, the RP-LC retention time was found to be 660 s. The result for `CC(C)NCCCn1c(Sc2cc3c(cc2I)OCO3)nc2c(N)ncnc21` reads 592 s; that for `Cc1ccnc(Nc2nc(-c3cc(C)ccc3C)cs2)c1`, 882 s; that for `COc1ccc(Cl)cc1NC(=O)N1CCc2c(c(COc3ccccc3)nn2C)C1`, 988 s. The molecule `COc1cccc(-c2ccc3nc(N4CCC(C(=O)NC(C)C)CC4)sc3n2)c1` came in with an RP-LC retention time of 895 s. For `Clc1cccc(-c2noc(Cc3nc(-c4cccs4)cs3)n2)c1`, the RP-LC retention time was determined as 1270 s. The result for `CC(C(=O)N1CCN(c2cc(=O)n(C)c(=O)n2C)CC1)N1C(=O)COc2ccccc21` (stereo not drawn) reads 627 s; that for `O=C(C1CCCO1)N1CCN(c2nc(CN3CCCCC3)cs2)CC1` (stereo not drawn), 579 s; that for `CS(=O)(=O)N1CCC(N2C[C@H](Oc3ccccc3)[C@@H]2c2ccncc2)CC1`, 630 s. For `CCc1nc2c(sc3nc(-c4ccccc4)ccc32)c(=O)n1CC(=O)N1CCc2ccccc2C1` the value was 1170 s. As to `CC(C)(C)c1noc(-c2ccc(-n3cnc(C(=O)NCc4ccc(F)cc4)c3)nc2)n1`, the RP-LC retention time was 1330 s.

`Cc1ccc(NC(=O)C2CCCN(S(=O)(=O)c3c[nH]c(C(=O)N4CCCCCC4)c3)C2)cc1` (stereo not drawn) had an RP-LC retention time of 926 s. `CCCn1cc(C(=O)Nc2ccc(N3CCOCC3)cc2)c2cccnc21`: the RP-LC retention time came out at 895 s. For `CCCN(CC1CCOC1)S(=O)(=O)c1ccccc1C(F)(F)F` (stereo not drawn) the value was 946 s; for `CCN1C=C(C(=O)OCc2cccc(C)c2)C(C)=NS1(=O)=O`, 1030 s. The molecule `COc1ccc(S(=O)(=O)N2CCCC(Cn3cnc4cccnc43)C2)cc1OC` (stereo not drawn) came in with an RP-LC retention time of 773 s. In turn, `CCOC(=O)c1cc(S(=O)(=O)N2CCCC2C(=O)Nc2ccc3c(c2)OCCO3)cn1C` (stereo not drawn) had an RP-LC retention time of 869 s.
